Measurements reported in US20100113372A1, “Method For Preparing Kaempferol-3-0-Rutinoside and Composition of Skin External Application Comprising Thereof” (Amorepacific Corporation, priority 2006, published 2010).

Experiments:
[1] = tested on: procollagen; experiment: Promoting effect of procollagen generation (procollagen type-1 C-peptide EIA kit); assay type: cell-based; conditions: human fibroblasts; for Degree of procollagen generation (%): serum-free DMEM, 1×10^−4M for 24 hours, untreated group = 100
Procedure: The promoting effect of procollagen generation achieved by kaempferol-3-O-rutinoside obtained from Examples 3 and 4 is measured and compared with that achieved by vitamin C. The procollagen is a material inducing collagen generation and is required to generate collagen and prevent aging. Vitamin C is known as an essential component for synthesis of collagen.
(§1) Human fibroblasts were inserted in a 96-well microtiter plate containing the DMEM (Dulbecco's Modified Eagle's Media) media with 2.5% fetal bovine serum to a quantity of 5000 cells/well and cultured until the human fibroblasts grow by 90%, then cultured again in the serum-free DMEM media for 24 hours. The kaempferol-3-O-rutinoside of Examples 3 and 4, and vitamin C dissolved in the serum-free DMEM media were treated at a concentration of 1×10^−4M for 24 hours, and the cell culture media was harvested. After 24 hours, the amount of procollagen floating in the culture media was measured using procollagen type-1 C-peptide EIA kit (MK101, Takara, Japan).
In an untreated group, a degree of procollagen generation is 100. A degree of procollagen generation of a group treated with the material as compared to that of the control group is obtained.

[2] = tested on: collagenase; experiment: Inhibitory effect of collagenase expression (collagenase immunoassay of fibroblast culture media); assay type: cell-based; conditions: human fibroblasts; for Degree of collagenase expression (%): serum-free DMEM, 1×10^4M for 24 hours, untreated group = 100
Procedure: The effect of inhibiting collagenase expression achieved by kaempferol-3-O-rutinoside obtained from Examples 3 and 4 is measured and compared with that achieved by tocopherol and EGCG. Tocopherol and EGCG are anti-oxidation materials that regenerate an epidermal cell of skin and prevent skin aging.
as §1, with “4, tocopherol” for “4,”, “EGCG” for “vitamin C”, “[…]” for “1×10^−4M”, “harvested.” for “harvested. After 24 hours, the amount of procollagen floating in the culture media was measured using procollagen type-1 C-peptide EIA kit (MK101, Takara, Japan).”
The degree of collagenase generation of harvested cell culture media was measured using an instrument for measuring collagenase (Amershampharmacia Company). The harvested cell culture media was added in a 96-well plate coated uniformly with first collagenase antibody, and antigen-antibody reaction was conducted for 3 hours in a thermostat.
After 3 hours, second collagen antibody bonded with chromophore was added in the 96-well plate to react for 15 minutes. After 15 minutes, color developing material was inserted at room temperature for 15 minutes to induce color development, then 1M sulfuric acid was added to terminate the reaction (color development). The color of the reaction solution is yellow and the degree of yellow color can differ according to a degree of reaction progression.
Absorbance of the 96-well plate having the yellow color was measured through an absorbency measurement at 405 nm and a degree of synthesis was calculated by the following equation 1. In the calculation, an absorbance of cell culture media untreated with the material was used as a control group. That is, a degree of collagenase expression of an untreated group is 100, and a degree of collagenase expression of a group treated with the material as compared to that of the control group is obtained.

Row | Compound | Degree of procollagen generation (%) [1] [%] | Degree of collagenase expression (%) [2] [%] | Effect on procollagen generation (in words) ([1]; in vitro) | Effect on collagenase expression (in words) ([2]; in vitro)
1 | O=C1O[C@H]([C@@H](O)CO)C(O)=C1O [Vitamin C, reference compound] | 120 | – | – | –
2 | CC1OC(OCC2OC(Oc3c(-c4ccc(O)cc4)oc4cc(O)cc(O)c4c3=O)C(O)C(O)C2O)C(O)C(O)C1O (centres unmarked) [Example 4-1, Kaempferol-3-O-rutinoside] | 145 | 68 | – | –
3 | CC1OC(OCC2OC(Oc3c(-c4ccc(O)cc4)oc4cc(O)cc(O)c4c3=O)C(O)C(O)C2O)C(O)C(O)C1O (centres unmarked) [Example 3-1, Kaempferol-3-O-rutinoside] | 121 | 70 | – | –
4 | CC1OC(OCC2OC(Oc3c(-c4ccc(O)cc4)oc4cc(O)cc(O)c4c3=O)C(O)C(O)C2O)C(O)C(O)C1O (centres unmarked) [Example 3-3, Kaempferol-3-O-rutinoside] | 138 | 63 | – | –
5 | O=C(O[C@@H]1Cc2c(O)cc(O)cc2O[C@@H]1c1cc(O)c(O)c(O)c1)c1cc(O)c(O)c(O)c1 [EGCG, reference compound] | – | 60 | – | –
6 | CC1OC(OCC2OC(Oc3c(-c4ccc(O)cc4)oc4cc(O)cc(O)c4c3=O)C(O)C(O)C2O)C(O)C(O)C1O (centres unmarked) [Example 3-2, Kaempferol-3-O-rutinoside] | 118 | 71 | – | –
7 | CC1OC(OCC2OC(Oc3c(-c4ccc(O)cc4)oc4cc(O)cc(O)c4c3=O)C(O)C(O)C2O)C(O)C(O)C1O (centres unmarked) [kaempferol-3-O-rutinoside] | – | – | promotes the procollagen generation in vitro | inhibits the collagenase expression in vitro
8 | CC1OC(OCC2OC(Oc3c(-c4ccc(O)cc4)oc4cc(O)cc(O)c4c3=O)C(O)C(O)C2O)C(O)C(O)C1O (centres unmarked) [Example 4-3, Kaempferol-3-O-rutinoside] | 122 | 70 | – | –
9 | Tocopherol [reference compound] | – | 75 | – | –
10 | CC1OC(OCC2OC(Oc3c(-c4ccc(O)cc4)oc4cc(O)cc(O)c4c3=O)C(O)C(O)C2O)C(O)C(O)C1O (centres unmarked) [Example 4-2, Kaempferol-3-O-rutinoside] | 123 | 73 | – | –
